Test results reported in US5137897A, “2-substituted 4-(3-alkyl-5-tert.-butyl-4-hydroxyphenyl) thiazoles, processes for their preparation, pharmaceuticals containing them and their use” (Hoechst Aktiengesllschaft, priority 1989, dated 1992).
Where two headings read alike, the source gives them in different places.

Assays:
[1] = system: Adjuvant arthritis (Perper modification; paw volume) in rats; experiment: Adjuvant arthritis (Perper modification), paw volume on the 21st day; format: in vivo, rat (male, Wistar-Lewis strain); conditions: for inhibition in vivo at 50 mg/kg: Rattus norvegicus, po, 504 h, 50 mg/kg/day, 1st to 12th day
Method: (§1) The investigations were carried out by the method of Pearson (Arthrit. Rheum. 1959, 2, 44). Male rats of a Wistar-Lewis strain having a body weight between 130 and 200 g were used as experimental animals. The compounds to be tested were administered orally (p. o.) once daily from the 1st to the 5th experimental day in doses of 50 mg per kg of body weight. The animals of one control group received only the vehicle. Each preparation group and the control group comprised 8 animals. The percentage reduction of the paw volume increase compared to that of the untreated control group was used as the criterion of action. The ED50 values were determined graphically from the dose-response curve.
(§2) 4-(3,5-Di-tert.-butyl-4-hydroxyphenyl)-2-methylthiazole i.e. the compound of the formula [drawing 26] according to US-A-4,535,165 mentioned at the beginning, was additionally included in this and the investigation below as a comparison preparation.
a) Adjuvant arthritis (Perper modification)
The animals were only treated from the 1st to the 12th experimental day in the experimental arrangement described in item 1. After a treatment-free interval of 9 days, determination of the paw volume of the left and right hind paw was carried out on the 21st day (compare Table 3).

[2] = system: Adjuvant arthritis (paw volume increase) in rats; experiment: Adjuvant arthritis (method of Pearson), antiinflammatory action on the 5th day; format: in vivo, rat (male, Wistar-Lewis strain); conditions: Rattus norvegicus, 120 h; for inhibition in vivo at 50 mg/kg: po, 50 mg/kg p.o. once daily, 1st to 5th day, vs untreated control, read-out: Adjuvant arthritis (% inhibition at 50 mg/kg orally); for ED50: adjuvant arthritis, oral, determined graphically from dose-response curve
Method: The testing of the compounds of the formula I according to the invention for antiinflammatory action, influence on immunopathological processes, oxygen free radicaldeactivating properties and influence on arachidonic acid metabolism was carried out in the animal models and bioassays described in the following.
1. Adjuvant arthritis for influencing the antiinflammatory action (Table 2)
as §1, §2

[3] = Free radical scavenger properties (reaction with DPPH); conditions: reaction with DPPH at 20° C.; determined graphically
Method: a) Free radical scavenger properties The testing in this test, which allows conclusions on the antioxidative potential of a substance, was carried out according to Smith et al., Biochem, Pharmacol. 1987. 36, 1456. In this test, the reaction of the compounds according to the invention with the stable free radical 1,1-diphenyl-2-picrylhydrazyl (DPPH) is monitored optically at 20° C. The rate constant K and reaction orders n in Table 5 were determined graphically in the customary manner.

[4] = system: Arthus reaction (paw volume increase) in rats; experiment: Reverse passive Arthus reaction; format: in vivo, rat (male Sprague-Dawley)
Method: b) Reverse passive Arthus reaction
Male Sprague-Dawley rats having a body weight between 100 and 120 g. which had been divided into groups of 8 animals in each case, were used as experimental animals. The animals received a subplantar injection in the left hind paw of 0.5 mg of immunoglobulin in 0.1 ml of a sodium chloride solution 1 hour after oral administration of the test substance. After 4 hours, the Arthus reaction was measured, the percentage change in the paw volume increase compared to that of the control group treated only with vehicle being used as a measuring parameter for the action.

[5] = system: 5-HETE formation in human neutrophils; experiment: Influence on 5-HETE formation in human neutrophils; format: cell-based; conditions: Neutrophil
Method: (§3) Moreover, the substances according to the invention were also characterized in cellular leukocyte systems in vitro as inhibitors of arachidonic acid metabolites. To detect the lipoxygenase metabolites, human neutrophils stimlated by calcium ionophore A 23 187 (70 mcmol/1) were incubated with ^14 C-arachidonic acid (81 mcmol/1) and the principal metabolites formed after 15 minutes at 37° C., such as 5-hydroxyeicosatetraenoic acid (5-HETE) and the more strongly proinflammatory leukotriene B4 (LTB4) were determined quantitatively (Tab. 6) with the aid of a radio monitor after separation by HPLC. The influence on the proinflammatory arachiconic acid metabolites thromboxane and LTB4 in cultures prepared from rat mast cells was determined in a corresponding manner (Tab. 7).

[6] = system: LTB4 formation in human neutrophils; experiment: Influence on LTB4 formation in human neutrophils; format: cell-based; conditions: Neutrophil
Method: as §3

lipoxygenase = molecular target: T1, lipoxygenase (Glycine max, UniProt P08170); experiment: Lipoxygenase (enzyme) inhibition in vitro; format: biochemical; conditions: at 50 μM
T1 construct: purchased Sigma, Deisenhofen, Germany L7127
T1 sequence (P08170 1-839): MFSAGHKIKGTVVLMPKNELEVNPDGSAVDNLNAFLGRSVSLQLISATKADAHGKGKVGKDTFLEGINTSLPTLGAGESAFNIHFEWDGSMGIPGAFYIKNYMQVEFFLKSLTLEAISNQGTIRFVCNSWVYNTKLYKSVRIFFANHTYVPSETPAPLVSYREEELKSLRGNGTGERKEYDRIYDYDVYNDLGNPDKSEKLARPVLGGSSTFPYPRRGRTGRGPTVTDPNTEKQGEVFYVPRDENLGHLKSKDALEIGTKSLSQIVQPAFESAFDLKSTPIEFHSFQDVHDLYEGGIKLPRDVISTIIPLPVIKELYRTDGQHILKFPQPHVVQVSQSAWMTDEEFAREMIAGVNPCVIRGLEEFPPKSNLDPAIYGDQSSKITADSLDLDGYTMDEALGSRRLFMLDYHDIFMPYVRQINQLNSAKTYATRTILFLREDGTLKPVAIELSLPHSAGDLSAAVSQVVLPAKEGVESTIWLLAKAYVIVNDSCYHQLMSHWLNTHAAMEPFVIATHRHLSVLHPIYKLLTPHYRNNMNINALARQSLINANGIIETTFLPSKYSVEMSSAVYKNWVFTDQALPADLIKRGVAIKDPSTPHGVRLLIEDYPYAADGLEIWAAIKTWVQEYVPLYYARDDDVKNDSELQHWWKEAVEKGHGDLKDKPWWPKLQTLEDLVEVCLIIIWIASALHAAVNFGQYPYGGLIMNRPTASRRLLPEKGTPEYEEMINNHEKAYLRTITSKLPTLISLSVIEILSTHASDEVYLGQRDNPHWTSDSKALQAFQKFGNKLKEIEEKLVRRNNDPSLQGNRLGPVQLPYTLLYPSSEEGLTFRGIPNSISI
Method: The inhibitory action of the compounds according to the invention is measured on the in vitro arachidonic acid degradation catalyzed by cyclooxycenase and lipoxycenase with the aid of the test systems described in Weithmann and Alpermann, Arzneim.-Forsch. 1985, 35, 947: The cyclooxygenase-catalyzed synthesis of prostaglandins from arachidonic acid is measured in the microsomal cyclooxygenase system (fraction from sheep seminal vesicles, Paesel, Frankfurt, Germany). The coenzyme is adrenaline, whose conversion to adrenochrome is monitored by spectrophotometry at 492 nm. Cis-9-cis-12-linoleic acid is incubated with lipoxygenase (L7127, Sigma, Deisenhofen, Germany) in the lipoxygenase system in vitro and the formation of conjugated double bonds taking place during the oxygenation reaction is monitored optically at 234 nm.
The inhibitor actions, or the inhibitor concentrations necessary for a 50 % inhibition of enzyme activity (IC50 values), have been determined for the following examples according to the invention: […]

[7] = system: Adjuvant arthritis (Perper modification; paw volume) in rats; experiment: Adjuvant arthritis (Perper modification), paw volume on the 21st day; format: in vivo, rat (male, Wistar-Lewis strain); conditions: Rattus norvegicus, po, 504 h, 1st to 12th day; for inhibition in vivo at 5 mg/kg: 5 mg/kg/day; for inhibition in vivo at 10 mg/kg: 10 mg/kg/day
[8] = read-out: % inhibition on the 21st day, Left paw
[9] = read-out: % inhibition on the 21st day, Right paw

SMILES | inhibition in vivo at 50 mg/kg [1, 8] | inhibition in vivo at 50 mg/kg [1, 9] | inhibition in vivo at 50 mg/kg [2] | reaction order n [3] | other results
Cc1nc(-c2cc(C(C)(C)C)c(O)c(C(C)(C)C)c2)cs1 [Comparison preparation, 4-(3,5-Di-tert.-butyl-4-hydroxyphenyl)-2-methylthiazole, reference compound] | 12% | 21% | 67% |  | action in the Perper modification of adjuvant arthritis (in words) ([1]; comparison with preparation from US-A-4,535,165): only a suggested action
CCOC(=O)CCc1nc(-c2cc(C(C)(C)C)c(O)c(C(C)(C)C)c2)cs1 [Example 1, Ethyl 3-[4-(3,5-di-tert.-butyl-4-hydroxyphenyl)thiazol-2-yl]propionate] | 45% | 49% | 73% | < 1 | ED50 [2]: 5.7 mg/kg
CCOC(=O)C=Cc1nc(-c2cc(C(C)(C)C)c(O)c(C(C)(C)C)c2)cs1 [Example 2, Ethyl 3-[4-(3,5-di-tert.-butyl-4-hydroxyphenyl)thiazol-2-yl]acrylate] |  |  |  | 1 | 
CC(C)(C)c1cc(-c2csc(C=C3CCNC3=O)n2)cc(C(C)(C)C)c1O [Example 4, 3-[4-(3,5-Di-tert.-butyl-4-hydroxyphenyl)thiazol-2-ylmethylidene]pyrrolidin-2-one] |  |  | 54% |  | 
CC(C)(C)c1cc(-c2csc(C=NOCC(=O)O)n2)cc(C(C)(C)C)c1O [Example 5] | 20% | 42% | 51% |  | % inhibition (Arthus reaction) ([4]; 60 mg/kg orally): 38%
CC(C)(OCc1nc(-c2cc(C(C)(C)C)c(O)c(C(C)(C)C)c2)cs1)C(=O)O [Example 6] |  |  | 70% |  | 
CC(C)(C)c1cc(-c2csc(CC(=O)O)n2)cc(C(C)(C)C)c1O [Example 9] |  |  |  | < 1 | activity at 0.1 µM ([5]; 0.1 μM, n = 6, read-out: 5-HETE formation, Residual activity (%)): 91.5 ± 10%; activity at 1 µM ([5]; 1 μM, n = 6, read-out: 5-HETE formation, Residual activity (%)): 80 ± 8%; activity at 10 µM ([5]; 10 μM, n = 6, read-out: 5-HETE formation, Residual activity (%)): 75 ± 13%; activity at 100 µM ([5]; 100 μM, n = 9, read-out: 5-HETE formation, Residual activity (%)): 21 ± 8%; activity at 0.1 µM ([6]; 0.1 μM, n = 6, read-out: LTB4 formation, Residual activity (%)): 70 ± 12%; activity at 1 µM ([6]; 1 μM, n = 6, read-out: LTB4 formation, Residual activity (%)): 79 ± 11%; activity at 10 µM ([6]; 10 μM, n = 6, read-out: LTB4 formation, Residual activity (%)): 73 ± 12%; activity at 100 µM ([6]; 100 μM, n = 9, read-out: LTB4 formation, Residual activity (%)): 20.5 ± 11%
CC(C)(C)c1cc(-c2csc(CCCC(=O)O)n2)cc(C(C)(C)C)c1O [Example 10] |  |  | 71% |  | 
CC(C)(C)c1cc(-c2csc(C=CC(=O)O)n2)cc(C(C)(C)C)c1O [Example 11] | 44% | 51% | 63% | 1 | ED50 [2]: 12.6 mg/kg
COC(=O)C=Cc1nc(-c2cc(C(C)(C)C)c(O)c(C(C)(C)C)c2)cs1 [Example 12] |  |  |  | 1 | inhibition at 50 µM (lipoxygenase): 73%
COC(=O)CCc1nc(-c2cc(C(C)(C)C)c(O)c(C(C)(C)C)c2)cs1 [Example 13] | 44% | 31% | 74% | 1 | 
CCOC(=O)CCc1nc(-c2cc(C(C)(C)C)c(O)c(C(C)(C)C)c2)c(C)s1 [Example 14] | 22% | 49% | 61% |  | 
Cc1cc(-c2csc(CCC(=O)O)n2)cc(C(C)(C)C)c1O [Example 17] | 60% | 38% | 67% |  | ED50 [2]: 7.5 mg/kg
CC(C)(C)c1cc(-c2csc(CSCC(=O)O)n2)cc(C(C)(C)C)c1O [Example 18] |  |  |  | 1 | % inhibition (Arthus reaction) ([4]; 100 mg/kg orally): 50%
CN(O)C(=O)CCc1nc(-c2cc(C(C)(C)C)c(O)c(C(C)(C)C)c2)cs1 [Example 19] |  |  | 75% | < 1 | inhibition in vivo at 5 mg/kg [7, 8]: 59%; inhibition in vivo at 5 mg/kg [7, 9]: 70%; inhibition in vivo at 10 mg/kg [7, 8]: 72%; inhibition in vivo at 10 mg/kg [7, 9]: 85%; ED50 [2]: 2.5 mg/kg; % inhibition (Arthus reaction) ([4]; 50 mg/kg orally): 45%
CONC(=O)CCc1nc(-c2cc(C(C)(C)C)c(O)c(C(C)(C)C)c2)cs1 [Example 20] | 50% | 35% | 66% |  | 
CC(C)(C)c1cc(-c2csc(CCC(=O)Nc3nn[nH]n3)n2)cc(C(C)(C)C)c1O [Example 21] | 42% | 54% | 65% | 1 | % inhibition (Arthus reaction) ([4]; 50 mg/kg orally): 48%
